Results reported in patent US20250387437A1, “PHARMACEUTICAL COMPOSITION FOR PREVENTING OR TREATING ALOPECIA INCLUDING AKKERMANSIA” (priority 2022, published 2025).

Legend:
[1] = tested on: alopecia-induced mice (testosterone); assay: Hair growth length increase effect; type: in vivo, C57BL/6 mice; details: after the 5-week experiment, average per group, FIGS. 2a-b
Procedure: The animal experiment was carried out in compliance with the Animal use and Care Protocol of the Institutional Animal Care and Use Committee (IACUC). Seven-week-old male C57BL/6 mice were purchased and acclimated for 1 week, and then bred for 5 weeks. Regarding the breeding environment, the mice were bred at a constant temperature (22° C.) and relative humidity (40% to 60%) with a 12-hr light/12-hr dark cycle. A chow diet was fed to all experimental groups. […] In order to make an alopecia model, 0.5 mg/day of testosterone was subcutaneously injected to mice in all experimental groups. A group in which alopecia was induced by testosterone administration was used as a negative control group, and finasteride was orally administered at 0.5 mg/kg/day as a positive control group. In the groups in which live bacteria and killed bacteria of the genus Akkermansia of the present invention are administrated, PBS containing L-cysteine and glycerol was orally administered as a vehicle. [table] After the 5-week experiment was completed, the hair length was measured for individuals in each experimental group to calculate an average value, and the results of the hair growth length increase effect experiment are shown as a graph in FIG. 2.

[2] = tested on: hair follicles of alopecia-induced C57BL/6 mice; assay: Histological change in mouse hair follicles (hematoxylin-eosin staining); type: in vivo; details: skin tissue collected at week 5, H&E, optical microscope, FIGS. 5a-b
Procedure: The animal experiment was carried out in compliance with the Animal use and Care Protocol of the Institutional Animal Care and Use Committee (IACUC). Seven-week-old male C57BL/6 mice were purchased and acclimated for 1 week, and then bred for 5 weeks. Regarding the breeding environment, the mice were bred at a constant temperature (22° C.) and relative humidity (40% to 60%) with a 12-hr light/12-hr dark cycle. A chow diet was fed to all experimental groups. […] In order to make an alopecia model, 0.5 mg/day of testosterone was subcutaneously injected to mice in all experimental groups. A group in which alopecia was induced by testosterone administration was used as a negative control group, and finasteride was orally administered at 0.5 mg/kg/day as a positive control group. In the groups in which live bacteria and killed bacteria of the genus Akkermansia of the present invention are administrated, PBS containing L-cysteine and glycerol was orally administered as a vehicle. [table] In order to confirm the morphological change of male C57BL/6 mouse hair follicles, skin tissues collected at week 5 after […] administration were stained with hematoxylin-eosin and observed with an optical microscope to confirm the number of hair follicles, and the results are shown in FIGS. 5a and 5b.

[3] = tested on: alopecia-induced mice (testosterone); assay: Confirmation of mouse hair growth through photograph; type: in vivo; details: testosterone 0.5 mg/day s.c. alopecia model, male C57BL/6 mice, daily treatment for 5 weeks, FIG. 1
Procedure: The animal experiment was carried out in compliance with the Animal use and Care Protocol of the Institutional Animal Care and Use Committee (IACUC). Seven-week-old male C57BL/6 mice were purchased and acclimated for 1 week, and then bred for 5 weeks. Regarding the breeding environment, the mice were bred at a constant temperature (22° C.) and relative humidity (40% to 60%) with a 12-hr light/12-hr dark cycle. A chow diet was fed to all experimental groups.
In order to make an alopecia model, 0.5 mg/day of testosterone was subcutaneously injected to mice in all experimental groups. A group in which alopecia was induced by testosterone administration was used as a negative control group, and finasteride was orally administered at 0.5 mg/kg/day as a positive control group. In the groups in which live bacteria and killed bacteria of the genus Akkermansia of the present invention are administrated, PBS containing L-cysteine and glycerol was orally administered as a vehicle.
For the mice in each experimental group, the degree of hair growth was observed through photographing hair. […] From the left side, there are the results of the negative control group (Testosterone), the positive control group (T+Finasteride), the Akkermansia muciniphila live bacteria-administered group (T+EB-AMDK19), and the Akkermansia muciniphila killed bacteria-administered group (T+EB-AMDK19 HI). […]

CC(C)(C)NC(=O)[C@H]1CC[C@H]2[C@@H]3CC[C@H]4NC(=O)C=C[C@]4(C)[C@H]3CC[C@]12C [finasteride]
hair length, comparison between treated groups [1]: showed similar patterns
number of telogen hair follicles compared to the negative control group [2]: increased
hair growth / regrowth in hair loss regions (photograph) [3]: almost all regions thereof were changed to black at week 5
skin color change in hair loss regions of the back (photograph) [3]: skin color was darkened from week 3 of treatment
